Data on four compounds can be found in PubChem BioAssay AID2060501 (Molecular Pharmacology Branch, DTP, NCI, 2025).
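Also: spheroids exposed to compounds for 7 days before readout; percent of vehicle DMSO control viability with 100% = untreated-like growth.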

The subject of the first assay is 282377-053-R-J1-PDC complex spheroids, viability. The assay is described as follows: Anticancer human tumor 282377-053-R-J1-PDC patient-derived colon adenocarcinoma cell line growth inhibition [GQUAD]. The settings on record: second compound 0.316 µM; first compound 1 µM; active compounds read low. In a few lines: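 Tumor cells were grown as complex spheroids with HUVEC endothelial cells and mesenchymal stem cells as stroma. G-quadruplex stabilizers were combined with targeted agents over half-log dilutions from near the clinical Cmax, or from 10 microM.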
`C=CCn1c(=O)c2cnc(Nc3ccc(N4CCN(C)CC4)cc3)nc2n1-c1cccc(C(C)(C)O)n1` + Cc1cnc(CNC(=O)c2c(=O)c3ccc(N4CCCN(C)CC4)nc3n3c2sc2ccccc23)cn1: the viability, T/C is 40.4%.

With `CC(C)(O)C1CCC(Nc2ccc3ncc(-c4cccc(C(F)(F)F)c4)n3n2)CC1` (configuration not stated) + Cc1cnc(CNC(=O)c2c(=O)c3ccc(N4CCCN(C)CC4)nc3n3c2sc2ccccc23)cn1, the viability, T/C was 57.9%.

In the case of `COc1ncnc(C2CC2)c1-c1ncc2cnn(Cc3ccc(-c4nc(C(F)(F)F)cn4C(C)C)cc3)c2n1` + Cc1cnc(CNC(=O)c2c(=O)c3ccc(N4CCCN(C)CC4)nc3n3c2sc2ccccc23)cn1, the viability, T/C was 76.2%.

Turning to `O=C(NO)c1cnc(N2CCN(S(=O)(=O)c3ccc4ccccc4c3)CC2)nc1` + Cc1cnc(CNC(=O)c2c(=O)c3ccc(N4CCCN(C)CC4)nc3n3c2sc2ccccc23)cn1, the viability, T/C was 1.28%.

Still in this assay, the particulars now being: second compound 0.316 µM; first compound 3.16 µM; active compounds read low.
`C=CCn1c(=O)c2cnc(Nc3ccc(N4CCN(C)CC4)cc3)nc2n1-c1cccc(C(C)(C)O)n1` + Cc1cnc(CNC(=O)c2c(=O)c3ccc(N4CCCN(C)CC4)nc3n3c2sc2ccccc23)cn1: the viability, T/C was 22.3%.

Turning to `CC(C)(O)C1CCC(Nc2ccc3ncc(-c4cccc(C(F)(F)F)c4)n3n2)CC1` (configuration not stated) + Cc1cnc(CNC(=O)c2c(=O)c3ccc(N4CCCN(C)CC4)nc3n3c2sc2ccccc23)cn1, the viability, T/C was 22.4%.

Consider `COc1ncnc(C2CC2)c1-c1ncc2cnn(Cc3ccc(-c4nc(C(F)(F)F)cn4C(C)C)cc3)c2n1` + Cc1cnc(CNC(=O)c2c(=O)c3ccc(N4CCCN(C)CC4)nc3n3c2sc2ccccc23)cn1, for which the viability, T/C is 76.5%.

For `O=C(NO)c1cnc(N2CCN(S(=O)(=O)c3ccc4ccccc4c3)CC2)nc1` + Cc1cnc(CNC(=O)c2c(=O)c3ccc(N4CCCN(C)CC4)nc3n3c2sc2ccccc23)cn1, the viability, T/C is 0.04%.

The assay is the same for the next values; noted with them: second compound 0.316 µM; first compound 10 µM; active compounds read low.
Regarding `C=CCn1c(=O)c2cnc(Nc3ccc(N4CCN(C)CC4)cc3)nc2n1-c1cccc(C(C)(C)O)n1` + Cc1cnc(CNC(=O)c2c(=O)c3ccc(N4CCCN(C)CC4)nc3n3c2sc2ccccc23)cn1, the viability, T/C is 12.5%.

With `CC(C)(O)C1CCC(Nc2ccc3ncc(-c4cccc(C(F)(F)F)c4)n3n2)CC1` (configuration not stated) + Cc1cnc(CNC(=O)c2c(=O)c3ccc(N4CCCN(C)CC4)nc3n3c2sc2ccccc23)cn1, the viability, T/C was 29.7%.

On to `COc1ncnc(C2CC2)c1-c1ncc2cnn(Cc3ccc(-c4nc(C(F)(F)F)cn4C(C)C)cc3)c2n1` + Cc1cnc(CNC(=O)c2c(=O)c3ccc(N4CCCN(C)CC4)nc3n3c2sc2ccccc23)cn1, for which the viability, T/C is 82.3%.

As to `O=C(NO)c1cnc(N2CCN(S(=O)(=O)c3ccc4ccccc4c3)CC2)nc1` + Cc1cnc(CNC(=O)c2c(=O)c3ccc(N4CCCN(C)CC4)nc3n3c2sc2ccccc23)cn1, the viability, T/C was 0.08%.

The same assay, now with this note: second compound 1 µM; first compound 0.0316 µM; active compounds read low.
Regarding `C=CCn1c(=O)c2cnc(Nc3ccc(N4CCN(C)CC4)cc3)nc2n1-c1cccc(C(C)(C)O)n1` + Cc1cnc(CNC(=O)c2c(=O)c3ccc(N4CCCN(C)CC4)nc3n3c2sc2ccccc23)cn1, the viability, T/C is 75.5%.

Consider `CC(C)(O)C1CCC(Nc2ccc3ncc(-c4cccc(C(F)(F)F)c4)n3n2)CC1` (configuration not stated) + Cc1cnc(CNC(=O)c2c(=O)c3ccc(N4CCCN(C)CC4)nc3n3c2sc2ccccc23)cn1, for which the viability, T/C was 62.1%.

Regarding `COc1ncnc(C2CC2)c1-c1ncc2cnn(Cc3ccc(-c4nc(C(F)(F)F)cn4C(C)C)cc3)c2n1` + Cc1cnc(CNC(=O)c2c(=O)c3ccc(N4CCCN(C)CC4)nc3n3c2sc2ccccc23)cn1, the viability, T/C is 60.6%.

Consider `O=C(NO)c1cnc(N2CCN(S(=O)(=O)c3ccc4ccccc4c3)CC2)nc1` + Cc1cnc(CNC(=O)c2c(=O)c3ccc(N4CCCN(C)CC4)nc3n3c2sc2ccccc23)cn1, for which the viability, T/C is 55.3%.

Still in this assay, the particulars now being: second compound 1 µM; first compound 0.1 µM; active compounds read low.
As for `C=CCn1c(=O)c2cnc(Nc3ccc(N4CCN(C)CC4)cc3)nc2n1-c1cccc(C(C)(C)O)n1` + Cc1cnc(CNC(=O)c2c(=O)c3ccc(N4CCCN(C)CC4)nc3n3c2sc2ccccc23)cn1, the viability, T/C is 75.8%.

Consider `CC(C)(O)C1CCC(Nc2ccc3ncc(-c4cccc(C(F)(F)F)c4)n3n2)CC1` (configuration not stated) + Cc1cnc(CNC(=O)c2c(=O)c3ccc(N4CCCN(C)CC4)nc3n3c2sc2ccccc23)cn1, for which the viability, T/C is 45.2%.

On to `COc1ncnc(C2CC2)c1-c1ncc2cnn(Cc3ccc(-c4nc(C(F)(F)F)cn4C(C)C)cc3)c2n1` + Cc1cnc(CNC(=O)c2c(=O)c3ccc(N4CCCN(C)CC4)nc3n3c2sc2ccccc23)cn1, for which the viability, T/C was 54.8%.

Take `O=C(NO)c1cnc(N2CCN(S(=O)(=O)c3ccc4ccccc4c3)CC2)nc1` + Cc1cnc(CNC(=O)c2c(=O)c3ccc(N4CCCN(C)CC4)nc3n3c2sc2ccccc23)cn1: the viability, T/C was 46.6%.

Staying with this assay, now noted: second compound 1 µM; first compound 0.316 µM; active compounds read low.
Take `C=CCn1c(=O)c2cnc(Nc3ccc(N4CCN(C)CC4)cc3)nc2n1-c1cccc(C(C)(C)O)n1` + Cc1cnc(CNC(=O)c2c(=O)c3ccc(N4CCCN(C)CC4)nc3n3c2sc2ccccc23)cn1: the viability, T/C is 65.1%.

On to `CC(C)(O)C1CCC(Nc2ccc3ncc(-c4cccc(C(F)(F)F)c4)n3n2)CC1` (configuration not stated) + Cc1cnc(CNC(=O)c2c(=O)c3ccc(N4CCCN(C)CC4)nc3n3c2sc2ccccc23)cn1, for which the viability, T/C was 46.5%.

With `COc1ncnc(C2CC2)c1-c1ncc2cnn(Cc3ccc(-c4nc(C(F)(F)F)cn4C(C)C)cc3)c2n1` + Cc1cnc(CNC(=O)c2c(=O)c3ccc(N4CCCN(C)CC4)nc3n3c2sc2ccccc23)cn1, the viability, T/C is 55.8%.

For the compound `O=C(NO)c1cnc(N2CCN(S(=O)(=O)c3ccc4ccccc4c3)CC2)nc1` + Cc1cnc(CNC(=O)c2c(=O)c3ccc(N4CCCN(C)CC4)nc3n3c2sc2ccccc23)cn1, the viability, T/C was 27.1%.

The assay is the same for the next values; noted with them: second compound 1 µM; first compound 1 µM; active compounds read low.
Turning to `C=CCn1c(=O)c2cnc(Nc3ccc(N4CCN(C)CC4)cc3)nc2n1-c1cccc(C(C)(C)O)n1` + Cc1cnc(CNC(=O)c2c(=O)c3ccc(N4CCCN(C)CC4)nc3n3c2sc2ccccc23)cn1, the viability, T/C was 40.2%.

On to `CC(C)(O)C1CCC(Nc2ccc3ncc(-c4cccc(C(F)(F)F)c4)n3n2)CC1` (configuration not stated) + Cc1cnc(CNC(=O)c2c(=O)c3ccc(N4CCCN(C)CC4)nc3n3c2sc2ccccc23)cn1, for which the viability, T/C is 40.5%.

Take `COc1ncnc(C2CC2)c1-c1ncc2cnn(Cc3ccc(-c4nc(C(F)(F)F)cn4C(C)C)cc3)c2n1` + Cc1cnc(CNC(=O)c2c(=O)c3ccc(N4CCCN(C)CC4)nc3n3c2sc2ccccc23)cn1: the viability, T/C was 52.8%.

As for `O=C(NO)c1cnc(N2CCN(S(=O)(=O)c3ccc4ccccc4c3)CC2)nc1` + Cc1cnc(CNC(=O)c2c(=O)c3ccc(N4CCCN(C)CC4)nc3n3c2sc2ccccc23)cn1, the viability, T/C is 0.1%.

The same assay, now with this note: second compound 1 µM; first compound 3.16 µM; active compounds read low.
As for `C=CCn1c(=O)c2cnc(Nc3ccc(N4CCN(C)CC4)cc3)nc2n1-c1cccc(C(C)(C)O)n1` + Cc1cnc(CNC(=O)c2c(=O)c3ccc(N4CCCN(C)CC4)nc3n3c2sc2ccccc23)cn1, the viability, T/C was 22.6%.

Turning to `CC(C)(O)C1CCC(Nc2ccc3ncc(-c4cccc(C(F)(F)F)c4)n3n2)CC1` (configuration not stated) + Cc1cnc(CNC(=O)c2c(=O)c3ccc(N4CCCN(C)CC4)nc3n3c2sc2ccccc23)cn1, the viability, T/C was 7.32%.

With `COc1ncnc(C2CC2)c1-c1ncc2cnn(Cc3ccc(-c4nc(C(F)(F)F)cn4C(C)C)cc3)c2n1` + Cc1cnc(CNC(=O)c2c(=O)c3ccc(N4CCCN(C)CC4)nc3n3c2sc2ccccc23)cn1, the viability, T/C is 57.9%.

Take `O=C(NO)c1cnc(N2CCN(S(=O)(=O)c3ccc4ccccc4c3)CC2)nc1` + Cc1cnc(CNC(=O)c2c(=O)c3ccc(N4CCCN(C)CC4)nc3n3c2sc2ccccc23)cn1: the viability, T/C was 0.05%.

Still in this assay, the particulars now being: second compound 1 µM; first compound 10 µM; active compounds read low.
`C=CCn1c(=O)c2cnc(Nc3ccc(N4CCN(C)CC4)cc3)nc2n1-c1cccc(C(C)(C)O)n1` + Cc1cnc(CNC(=O)c2c(=O)c3ccc(N4CCCN(C)CC4)nc3n3c2sc2ccccc23)cn1: the viability, T/C is 13.6%.

As to `CC(C)(O)C1CCC(Nc2ccc3ncc(-c4cccc(C(F)(F)F)c4)n3n2)CC1` (configuration not stated) + Cc1cnc(CNC(=O)c2c(=O)c3ccc(N4CCCN(C)CC4)nc3n3c2sc2ccccc23)cn1, the viability, T/C was 18.9%.

In the case of `COc1ncnc(C2CC2)c1-c1ncc2cnn(Cc3ccc(-c4nc(C(F)(F)F)cn4C(C)C)cc3)c2n1` + Cc1cnc(CNC(=O)c2c(=O)c3ccc(N4CCCN(C)CC4)nc3n3c2sc2ccccc23)cn1, the viability, T/C is 55.9%.

Take `O=C(NO)c1cnc(N2CCN(S(=O)(=O)c3ccc4ccccc4c3)CC2)nc1` + Cc1cnc(CNC(=O)c2c(=O)c3ccc(N4CCCN(C)CC4)nc3n3c2sc2ccccc23)cn1: the viability, T/C is 0.09%.

Staying with this assay, now noted: second compound 3.16 µM; first compound 0.0316 µM; active compounds read low.
For `C=CCn1c(=O)c2cnc(Nc3ccc(N4CCN(C)CC4)cc3)nc2n1-c1cccc(C(C)(C)O)n1` + Cc1cnc(CNC(=O)c2c(=O)c3ccc(N4CCCN(C)CC4)nc3n3c2sc2ccccc23)cn1, the viability, T/C is 55.7%.

As for `CC(C)(O)C1CCC(Nc2ccc3ncc(-c4cccc(C(F)(F)F)c4)n3n2)CC1` (configuration not stated) + Cc1cnc(CNC(=O)c2c(=O)c3ccc(N4CCCN(C)CC4)nc3n3c2sc2ccccc23)cn1, the viability, T/C was 45%.

Consider `COc1ncnc(C2CC2)c1-c1ncc2cnn(Cc3ccc(-c4nc(C(F)(F)F)cn4C(C)C)cc3)c2n1` + Cc1cnc(CNC(=O)c2c(=O)c3ccc(N4CCCN(C)CC4)nc3n3c2sc2ccccc23)cn1, for which the viability, T/C was 53.3%.

With `O=C(NO)c1cnc(N2CCN(S(=O)(=O)c3ccc4ccccc4c3)CC2)nc1` + Cc1cnc(CNC(=O)c2c(=O)c3ccc(N4CCCN(C)CC4)nc3n3c2sc2ccccc23)cn1, the viability, T/C is 41%.

The same assay, now with this note: second compound 3.16 µM; first compound 0.1 µM; active compounds read low.
On to `C=CCn1c(=O)c2cnc(Nc3ccc(N4CCN(C)CC4)cc3)nc2n1-c1cccc(C(C)(C)O)n1` + Cc1cnc(CNC(=O)c2c(=O)c3ccc(N4CCCN(C)CC4)nc3n3c2sc2ccccc23)cn1, for which the viability, T/C is 60.1%.

Regarding `CC(C)(O)C1CCC(Nc2ccc3ncc(-c4cccc(C(F)(F)F)c4)n3n2)CC1` (configuration not stated) + Cc1cnc(CNC(=O)c2c(=O)c3ccc(N4CCCN(C)CC4)nc3n3c2sc2ccccc23)cn1, the viability, T/C is 45%.

In general, viability, T/C refers to the result in the treated group divided by that in the control group, in per cent.
